Entries after “also recorded” stand apart in the source; their conditions may differ. Where two headings read alike, the source gives them in different places.
Experiments:
[1] = test system: CYP3A; conditions: for Midazolam/1-OH-midazolam AUC2–4 h ratio: pantoprazole group
[2] = test system: CYP3A4; conditions: cited from earlier work; for CYP3A4 inhibition in vitro: HCQ metabolites
[3] = test system: CYP2D6; conditions: cited from earlier work
[4] = test system: CYP2D6; conditions: single 400 mg HCQ, short term, yohimbine probe
[5] = test system: CYP2D6; conditions: cited from earlier work; remark: listed apart in the source
[6] = cited from earlier work
[7] = cited from earlier work; remark: listed apart in the source
[8] = cited from earlier work; for Peak serum concentration: pantoprazole 40 mg
[9] = target: recombinant human CYP3A4 (Homo sapiens, UniProt P08684); assay: P450-Glo CYP3A4 Assay, inhibition by pantoprazole; assay type: in vitro ADME; conditions: pantoprazole 100 µM, in vitro
Sequence of recombinant human CYP3A4 (P08684 whole entry): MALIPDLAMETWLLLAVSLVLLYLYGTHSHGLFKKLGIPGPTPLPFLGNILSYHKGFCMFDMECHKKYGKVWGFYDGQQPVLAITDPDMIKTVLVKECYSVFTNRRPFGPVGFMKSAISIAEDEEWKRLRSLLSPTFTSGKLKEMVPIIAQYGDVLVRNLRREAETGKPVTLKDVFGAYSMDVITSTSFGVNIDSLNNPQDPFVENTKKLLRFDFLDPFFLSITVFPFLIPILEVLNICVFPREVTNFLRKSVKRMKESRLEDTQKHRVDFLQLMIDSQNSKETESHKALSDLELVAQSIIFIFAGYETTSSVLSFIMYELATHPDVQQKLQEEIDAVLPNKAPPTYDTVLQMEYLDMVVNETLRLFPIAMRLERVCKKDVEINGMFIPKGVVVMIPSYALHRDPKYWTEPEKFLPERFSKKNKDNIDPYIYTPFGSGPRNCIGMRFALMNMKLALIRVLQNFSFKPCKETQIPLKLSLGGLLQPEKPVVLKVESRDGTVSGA

[10] = all participants, after HCQ intake (± pantoprazole)
[11] = pantoprazole subgroup, HCQ plus pantoprazole
[12] = after 8-day course of 400 mg HCQ twice daily, seven healthy volunteers

Question: Which results are given for `OCc1ncc2n1-c1ccc(Cl)cc1C(c1ccccc1F)=NC2` [1-OH-midazolam, 1-hydroxy-midazolam]?
Answer: Increase of 1-OH-midazolam AUC2–4 h vs baseline [1, 10]: 17%; Increase of 1-OH-midazolam AUC2–4 h vs baseline [1, 11]: 17.5%

Question: With `CCN(CCO)CCCC(C)Nc1ccnc2cc(Cl)ccc12` (stereo not shown) [HCQ, hydroxychloroquine] as the compound, how does the “CYP3A4 inhibition in vitro by parent drug” value [2] read?
Answer: Its value is “did not support the hypothesis that the parent drug HCQ inhibits CYP3A4 activity”.

Question: And the “CYP2D6 inhibition in vitro” value [3]?
Answer: Its value is “competitively and reversibly inhibit CYP2D6 activity, albeit only mildly”.

Question: What about the “Inhibition of CYP3A metabolism in vivo” value ([1]; single 400 mg HCQ, short term, midazolam probe) of the same compound?
Answer: The value was “did not inhibit”.

Question: What about the “Inhibition of CYP2D6 metabolism in vivo” value [4] of the same compound?
Answer: Its value is “not a clinically relevant CYP2D6 inhibitor; also recorded: did not inhibit”.

Question: What about the “CYP2D6 inhibition in healthy volunteers” value ([5]; interaction with metoprolol and dextromethorphan) of the same compound?
Answer: Its value is “weakly inhibits CYP2D6”.

Question: And the “Time until steady state is reached” value [6]?
Answer: Its value is 4 months.

Question: For `CCNCCCC(C)Nc1ccnc2cc(Cl)ccc12` (stereo not shown) [desethylchloroquine], which “CYP3A4 inhibition in vitro” value [2] is on record?
Answer: Its value is “time-dependent inhibitors of CYP3A4”.

Question: What about the “CYP2D6 inhibition in vitro” value [3] of the same compound?
Answer: Its value is “competitively and reversibly inhibit CYP2D6 activity, albeit only mildly”.

Question: With `CC(CCCNCCO)Nc1ccnc2cc(Cl)ccc12` (stereo not shown) [desethylhydroxychloroquine] as the compound, how does the “CYP3A4 inhibition in vitro” value [2] read?
Answer: Its value is “time-dependent inhibitors of CYP3A4”.

Question: For `COc1ccc2c(c1)[C@]13CCCC[C@@H]1[C@H](C2)N(C)CC3` [dextromethorphan], which “Change of urinary metabolic ratio of dextromethorphan” value ([5]; after 8-day course of 400 mg HCQ twice daily) is on record?
Answer: The value was “did not show any significant change”.

Question: With `CC(CCCN)Nc1ccnc2cc(Cl)ccc12` (stereo not shown) [didesethylchloroquine] as the compound, how does the “CYP3A4 inhibition in vitro” value [2] read?
Answer: The value was “time-dependent inhibitors of CYP3A4”.

Question: For `COCCc1ccc(OCC(O)CNC(C)C)cc1` (stereo not shown) [metoprolol], which “Increase of metoprolol AUC” value [5, 12] is on record?
Answer: The value was 65%.

Question: And the “Increase of metoprolol Cmax” value [5, 12]?
Answer: The value was 72%.

Question: Which results are given for `Cc1ncc2n1-c1ccc(Cl)cc1C(c1ccccc1F)=NC2` [midazolam]?
Answer: Delay of peak plasma concentration vs fasting state ([7]; oral standard dose 1 h after a meal): 0.9 h; Oral bioavailability ([7]; therapeutic or microdoses): approximately 25%; Increase of midazolam AUC2–4 h vs baseline [1, 10]: 25%; Change of midazolam AUC2–4 h vs baseline ([1]; control subgroup, HCQ alone): no change; Midazolam/1-OH-midazolam AUC2–4 h ratio ([1]; after hydroxychloroquine plus pantoprazole): 3.60 ± 1.56; Midazolam/1-OH-midazolam AUC2–4 h ratio ([1]; baseline): 3.03 ± 1.59; Increase of midazolam AUC2–4 h vs baseline [1, 11]: 46%

Question: For `COc1ccnc(C[S+]([O-])c2nc3ccc(OC(F)F)cc3[nH]2)c1OC` (stereo not shown) [pantoprazole], which “Time to peak concentrations after oral administration” value [8] is on record?
Answer: The value was 2 to 3 h.

Question: What about the Peak serum concentration ([8]; converted from µg/ml) of the same compound?
Answer: The Peak serum concentration was 6.5 µM.

Question: What about the Peak serum concentration [8] of the same compound?
Answer: Its Peak serum concentration is 2.5 µg/mL.

Question: And the “Inhibition of CYP3A4-mediated midazolam metabolism in vitro” value [2]?
Answer: The value was “inhibits CYP3A4-mediated midazolam metabolism at relatively high concentrations”.

Question: And the “Local concentration in the gut” value ([1]; 40 mg pantoprazole with approximately 200 ml of fluid, estimate)?
Answer: Its value is “exceeded 500 µM”.

Question: And the “Reduction of CYP3A activity” value [9]?
Answer: The value was 75%.

Reference: article PMC10781839 (European Journal of Drug Metabolism and Pharmacokinetics, 2023)
